Drawing on PMC11723358, “Nelumbo nucifera Petals Ameliorate Depressive-like Symptom and Cognitive Deficit in Unpredictable Chronic Mild Stress Mouse Model” (Nutrients, 2024), this text covers IC50 and inhibition for four compounds.

Assay in all cases: fluorescence, kynuramine to 4-hydroxyquinoline
Format in all cases: biochemical

Assay [1] addresses T1, MAO-A (Homo sapiens, UniProt P21397).
T1 construct: gene MAOA; human recombinant enzyme
T1 sequence (P21397 1-527): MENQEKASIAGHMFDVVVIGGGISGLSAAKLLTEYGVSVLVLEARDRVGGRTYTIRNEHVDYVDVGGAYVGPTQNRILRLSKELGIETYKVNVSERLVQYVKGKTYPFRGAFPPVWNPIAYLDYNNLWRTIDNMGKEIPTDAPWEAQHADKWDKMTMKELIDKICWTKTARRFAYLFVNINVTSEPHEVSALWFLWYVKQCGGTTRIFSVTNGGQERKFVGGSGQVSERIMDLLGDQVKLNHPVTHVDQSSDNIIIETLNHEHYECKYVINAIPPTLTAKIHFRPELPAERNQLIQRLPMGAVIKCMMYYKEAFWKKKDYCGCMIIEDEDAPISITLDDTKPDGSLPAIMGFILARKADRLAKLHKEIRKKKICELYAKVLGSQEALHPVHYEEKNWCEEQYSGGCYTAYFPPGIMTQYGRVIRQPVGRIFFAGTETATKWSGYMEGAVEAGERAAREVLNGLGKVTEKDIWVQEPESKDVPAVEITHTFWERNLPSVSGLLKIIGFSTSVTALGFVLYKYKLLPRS

Assay [2] concerns the target T2, MAO-B (Homo sapiens, UniProt P27338).
T2 construct: gene MAOB; human recombinant enzyme
T2 sequence (P27338 2-520): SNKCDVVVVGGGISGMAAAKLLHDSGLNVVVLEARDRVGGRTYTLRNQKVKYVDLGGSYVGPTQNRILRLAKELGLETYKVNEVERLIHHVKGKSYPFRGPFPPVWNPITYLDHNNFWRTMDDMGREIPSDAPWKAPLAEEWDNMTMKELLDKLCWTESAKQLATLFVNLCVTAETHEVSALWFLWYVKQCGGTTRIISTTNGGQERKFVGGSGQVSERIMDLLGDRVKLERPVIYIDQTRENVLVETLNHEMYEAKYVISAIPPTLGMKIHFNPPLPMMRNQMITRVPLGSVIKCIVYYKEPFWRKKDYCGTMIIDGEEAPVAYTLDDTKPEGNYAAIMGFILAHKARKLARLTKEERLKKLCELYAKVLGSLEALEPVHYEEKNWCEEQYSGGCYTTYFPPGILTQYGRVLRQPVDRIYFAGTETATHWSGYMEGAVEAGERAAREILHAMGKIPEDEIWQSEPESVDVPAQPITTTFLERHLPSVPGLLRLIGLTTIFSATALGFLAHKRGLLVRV

Assay [3] concerns the target T2, MAO-B. Particulars: read-out: % inhibition at 1000 μM. The text has this: fluorescence, kynuramine to 4-hydroxyquinoline on MAO-B

The IC50 is the concentration that inhibits the measured activity by half. A higher IC50 goes with lower potency. Turning to `O=c1c(O[C@@H]2O[C@H](CO)[C@H](O)[C@H](O)[C@H]2O)c(-c2ccc(O)cc2)oc2cc(O)cc(O)c12` [compound 2, trifolin], the IC50 in assay [1] is 578.4 ± 2.01 µM; in assay [2], 860.7 ± 3.7 µM.

Regarding `C[C@@H]1O[C@@H](O[C@H]2[C@H](Oc3c(-c4ccc(O)cc4)oc4cc(O)cc(O)c4c3=O)O[C@H](CO)[C@@H](O)[C@@H]2O)[C@H](O)[C@H](O)[C@H]1O` [compound 3, kaempferol-3-neohesperidoside], the IC50 in assay [1] came out at 108.9 ± 0.21 µM; in assay [2], 242.2 ± 0.78 µM.

One may read the inhibition as how much of the control response was suppressed. In the case of `OCCc1ccc(O[C@@H]2O[C@H](CO)[C@@H](O)[C@H](O)[C@H]2O)cc1` [compound 4, icariside D2], the inhibition at 1000 µM in assay [3] amounted to 43.5 ± 5.2%. In assay [1], the IC50 stood at 584 ± 11.8 µM.

As to `CC[C@H](CC[C@@H](C)[C@H]1CC[C@H]2[C@@H]3CC=C4C[C@@H](O)CC[C@]4(C)[C@H]3CC[C@]12C)C(C)C` [compound 5, β-sitosterol], the inhibition at 1000 µM in assay [3] turned out to be 20.7 ± 1.8%. In addition, the midpoint of inhibition in assay [1], the IC50, lay at 2.8 ± 0.13 µM.
